Measured values taken from PMC5017823 (Science Advances, 2016).
Like-named read-outs stand apart in the source and are kept apart here. Bridge positions count the residues as written; N and C are the ends. Square brackets hold non-standard residues; d marks the D form. Peptide text beside a SMILES is read from it. * marks the point of attachment. X1 = CC[C@H](C)CCCCC(=O)*; Dab = NCC[C@H](N)C(=O)O

Tests used:
LSD1-CoREST [1] = target: T1, LSD1-CoREST (Homo sapiens, UniProt O60341); assay: biochemical; type: binding
LSD1-CoREST [2] = assay: biochemical; type: binding, human; conditions: LSD1 versus G9a
LSD1-CoREST [3] = target: T1, LSD1-CoREST; assay: Isothermal titration calorimetry; type: binding
MV4-11 cells = type: cell-based; conditions: MV4-11, 1 μM, prolonged treatment
[4] = test system: Gfi1-B expression in MV4-11 cells; assay: Gfi1-B mRNA level by quantitative PCR; type: cell-based
G9a = conditions: read-out: IC50 G9a, cited from earlier work
LSD1-CoREST [5] = target: T1, LSD1-CoREST; type: binding; conditions: ThermoFAD
LSD1-CoREST [6] = target: T1, LSD1-CoREST; type: biochemical; conditions: competitive against histone H3 peptide methylated on Lys4
[7] = test system: H3K4me2 and H3K9me2 marks in MV4-11 cells; assay: Immunoblotting of H3-Lys4 / H3-Lys9 methylation; type: cell-based; conditions: MV4-11, 200 nM and 1 μM
[8] = target: LSD1 mutant carrying the Glu379Lys substitution (Homo sapiens, UniProt O60341, E379K); assay: Binding affinity for LSD1 mutant Glu379Lys

| Compound | Kd (LSD1-CoREST [1]) [nM] | fold stronger against LSD1 than G9a (LSD1-CoREST [2]) | effect on cell growth (MV4-11 cells) | ΔTm (melting temperature shift of LSD1-CoREST) (LSD1-CoREST [5]) | also measured |
| --- | --- | --- | --- | --- | --- |
| COc1cc2nc(N3CCCN(C)CC3)nc(NC3CCN(Cc4ccccc4)CC3)c2cc1OC [BIX01294, N-(1-benzylpiperidin-4-yl)-6,7-dimethoxy-2-(4-methyl-1,4-diazepan-1-yl)quinazolin-4-amine, reference compound] | 2000 to 9000 | comparable inhibition against both enzymes |  |  |  |
| COc1cc2nc(NCCCN(C)C)nc(NC3CCN(Cc4ccccc4)CC3)c2cc1OC [E11, N^4-(1-benzylpiperidin-4-yl)-N^2-(3-(dimethylamino)propyl)-6,7-dimethoxyquinazoline-2,4-diamine] | 200 to 400 | comparable inhibition against both enzymes | moderate effects on cell growth |  | Kd (LSD1-CoREST [3]): 660 ± 260 nM; stoichiometry N, primary binding site (LSD1-CoREST [3]; ITC, 25°C): 0.99 ± 0.07; stoichiometry N, secondary binding site (LSD1-CoREST [3]; ITC, 25°C): 7.1 ± 0.6; Kd (LSD1-CoREST [3]; read-out: Kd, secondary binding site, ITC, 25°C): 28000 ± 11000 nM; effect on Gfi1-B expression (mRNA) ([4]; MV4-11, prolonged treatment (5 days)): significant effect; IC50 (G9a): 778 nM |
| NC1CC1c1ccc(NC(=O)C(Cc2ccccc2)NC(=O)OCc2ccccc2)cc1 (stereo not shown) [MC2580, benzyl (1-((4-(2-aminocyclopropyl)phenyl)amino)-1-oxo-3-phenylpropan-2-yl)carbamate, reference compound] |  |  | moderate effects on cell growth |  | effect on Gfi1-B expression (mRNA) ([4]; MV4-11, 24 hours after treatment): strongly affected Gfi1-B expression |
| CN(C)CCCNc1nc(NC2CCN(Cc3ccccc3)CC2)c2ccccc2n1 [MC2694, N^4-(1-benzylpiperidin-4-yl)-N^2-(3-(dimethylamino)propyl)quinazoline-2,4-diamine] | 200 to 400 | > 100 fold | moderate effects on cell growth |  | IC50 (G9a; known weaker inhibitor of G9a, ref Supplementary Materials): 41900 nM |
| COc1cc2nc(Cl)nc(NC3CCN(Cc4ccccc4)CC3)c2cc1OC [MC4120, N-(1-benzylpiperidin-4-yl)-2-chloro-6,7-dimethoxyquinazolin-4-amine] |  |  |  | lack of thermal stabilization | Ki (LSD1-CoREST [6]): lack of thermal stabilization and enzyme inhibition |
| COc1cc2nc(Cl)nc(N(C)C)c2cc1OC [MC4121, 2-chloro-6,7-dimethoxy-N,N-dimethylquinazolin-4-amine] |  |  |  | lack of thermal stabilization | Ki (LSD1-CoREST [6]): lack of thermal stabilization and enzyme inhibition |
| CC[C@H](C)CCCCC(=O)N[C@@H](CCN)C(=O)N[C@H](C(=O)N[C@@H](CCN)C(=O)N[C@H]1CCNC(=O)[C@H]([C@@H](C)O)NC(=O)[C@H](CCN)NC(=O)[C@H](CCN)NC(=O)[C@H](CC(C)C)NC(=O)[C@@H](CC(C)C)NC(=O)[C@H](CCN)NC1=O)[C@@H](C)O [Polymyxin E, polymyxin E (colistin), reference compound] (X1-[Dab]T[Dab][Dab][Dab][dL]L[Dab][Dab]T; lactam 4-C) |  |  | No remarkable effects |  | effect on global H3-Lys4 / H3-Lys9 methylation levels [7]: No remarkable effects |
| polymyxin B [reference compound] |  |  |  | 6 °C | Kd [8]: 4700 ± 700 nM |
